Data published in patent publication US9909123B2, “Antisense molecules for treatment of Staphylococcus aureus infection” (priority 2013, dated 2018).
Ends that are not written are not given here.

Test system: MRSA
Test: FITC assay to monitor cellular uptake of peptides (fluorescence microscopy)
Assay type: cell-based, Staphylococcus aureus
Conditions: 2 hours post-treatment with 1 μM of FITC-peptide agents
Experimental: An FITC assay may be utilized, to monitor cellular uptake of peptides. Peptides were conjugated to fluorescein isothiocyanate (FITC) to monitor uptake using florescence microscopy. FIG. 2A-2B show assay results for several peptides as tested in MRSA (FIG. 2A) and AcB (FIG. 2B) (fluorescent overlays 2 hours post-treatment with 1 μM of FITC peptide agents, scale bar=100 μm).
An FITC assay was utilized to monitor cellular uptake of peptides. Peptides were conjugated to fluorescein isothiocyanate (FITC) to monitor uptake using, florescence microscopy.

| Sequence | cellular entry of FITC-peptide |
| --- | --- |
| GIGKWLHSAKKFGKAFVGEIMNS (also: FITC label, site not given here) [Magainin-FITC, Magainin 2 cell penetrating peptide conjugated to fluorescein isothiocyanate (FITC)] | effective for entry into MRSA |
| KFFKFFKFFK (also: FITC label, site not given here) [cell penetrating peptide, tested conjugated to FITC] | effective for cellular entry |
| RFFRFFRFFR (also: FITC label, site not given here) [cell penetrating peptide, tested conjugated to FITC] | effective for cellular entry |
